Experimental findings from patent publication US20070244190A1, “Neobritannilactone B and acetyl neobritannilactone B” (priority 2006, published 2007) are described below.

Holding throughout (type): cell-based, human
One assay deals with HL-60 cells. Kind of assay: Apoptosis (sub-G1) by flow cytometry. The following applies: 24 h, mean ± SE. As for the experimental part: (§1) Cell Culture and Chemicals. The COLO 205 and HT 29 cell lines were isolated from human colon adenocarcinoma (ATCC CCL-222 and HTB-38); human promyelocytic leukemia (HL-60) cells were obtained from American Type Culture Collection (Rockville, Md.). The human AGS gastric carcinoma cell lines (CCRC 60102) were obtained from the Food Industry Research and Development Institute (Hsinchu, Taiwan). Cell lines were grown at 37° C. in 5% CO2 dioxide atmosphere in RPMI for COLO 205, HT-29, and HL-60 cells and DMEM/F12 for AGS cells, all supplemented with 10% heat-inactivated fetal bovine serum (GIBCO BRL, Grand Island, N.Y.) (100 units/mL of penicillin, 100 μg/mL of streptomycin), and 2 mM L-glutamine (GIBCO BRL). Selected compounds were dissolved in dimethyl sulfoxide (DMSO). Propidium iodide was obtained from Sigma Chemical Co. (St. Louis, Mo.).
(§2) Flow Cytometry. Human cancer cells (2×10^5) were cultured in 60-mm Petri dishes and incubated for 24 h. The apoptotic cells (sub-G1) in the selected compounds and treated cells were measured by flow cytometry analysis. Then cells were harvested, washed with PBS, resuspended in 200 μL of PBS, and fixed in 800 μL of iced 100% ethanol at −20° C. After being left to stand overnight, the cell pellets were collected by centrifugation, resuspended in 1 mL of hypotonic buffer (0.5% Triton X-100 in PBS and 0.5 μg/mL RNase), and incubated at 37° C. for 30 min. Then 1 mL of propidium iodide solution (50 μg/mL) was added and the mixture was allowed to stand on ice for 30 min. Fluorescence emitted from the propidium iodide-DNA complex was quantitated after excitation of the fluorescent dye by FACScan cytometry (Becton Dickinson, San Jose, Calif.).
(§3) The compounds isolated from Inula were tested for their effects on the apoptotic ratio in human cancer cells.

The test system of the next assay is HT-29 cells. The experiment in a line: Apoptosis (sub-G1) by flow cytometry. The following applies: 24 h, mean ± SE. As for the experimental part: as §1, §2, §3
A general note: In flow cytometry, cells or beads pass a laser one at a time.

The subject of assay [1] is AGS cells. The experiment in a line: Sub-G1 flow cytometry (Example 3). The following applies: 24 h, FIG. 3. As for the experimental part:
as §2, with “AGS” for “Human cancer”, “The” for “The apoptotic cells (sub-G1) in the selected compounds and treated”, “then” for “measured by flow cytometry analysis. Then cells were”, “Next,” for “Then”, “added,” for “added”
The cytotoxic effects of NAB and ANAB in AGS cells were analyzed to assess their consistency with the specific changes that characterize apoptosis, such as DNA fragmentation. To investigate the induction of a sub-G1 cell population, the DNA content of AGS cells treated with various concentrations of NAB and ANAB was analyzed by flow cytometry. Cells were treated with NAB and ANAB, and stained with propidum iodide.

A further assay relates to Bcl-XL in AGS cells. The experiment in a line: Western blot of Bcl-XL expression. The following applies: for Bcl-XL expression: various concentrations, 24 hours, FIG. 7A. As for the experimental part: Western Blotting. […] The total proteins were extracted via the addition of 200 μL of gold lysis buffer (50 mM Tris-HCl, pH 7.4; 1 mM NaF; 150 mM NaCl; 1 mM EGTA; 1 mM phenylmethanesulfonyl fluoride; 1% NP-40; and 10 μg/mL leupeptin) to the cell pellets on ice for 30 min, followed by centrifugation at 10,000 g for 30 min at 4° C. The cytosolic fraction (supernatant) proteins were measured by Bio-Rad protein assay (Bio-Rad Laboratories, Munich, Germany). The samples (50 μg of protein) were mixed with 5× sample buffer containing 0.3 M Tris-HCl (pH 6.8), 25% 2-mercaptoethanol, 12% sodium dodecyl sulfate (SDS), 25 mM EDTA, 20% glycerol, and 0.1% bromophenol blue. The mixtures were boiled at 100° C. for 5 min and were subjected to 12% SDS-polyacrylamide minigels at a constant current of 20 mA. Subsequently, electrophoresis was ordinarily carried out on SDS-polyacrylamide gels. For electrophoresis, proteins on the gel were electrotransferred onto an immobile membrane (PVDF; Millipore Corp., Bedford, Mass.) with transfer buffer composed of 25 mM Tris-HCl (pH 8.9), 192 mM glycine, and 20% methanol. The membranes were blocked with blocking solution containing 20 mM Tris-HCl and then immunoblotted with primary antibodies including, anti-Bcl-XL, anti-β-actin (Transduction Laboratory, Lexington, Ky.), anti-PARP (UBI, Inc., Lake Placid, N.Y.), at room temperature for 1 h. Detection was achieved by measuring the chemiluminescence of blotting agent (ECL, Amersham Corp., Arlington Heights, Ill.), after exposure of the filters to KODAK X-OMAT films.
Several gene products are known to be important in controlling the apoptotic process. The imbalance of expression of anti- and pro-apoptotic proteins after a stimulus is one of the major mechanisms underlying the ultimate fate of cells in the apoptotic process. Bcl-XL expression in tumor cells, for instance, confers resistance against chemotherapeutic drugs. The expression of anti-apoptotic protein Bcl-XL was therefore examined in cancer cells treated with various concentrations of NAB or ANAB for 24 hours. […] FIG. 7A. […] FIG. 7B.
A general note: In western blotting, separated proteins are transferred to a membrane and probed.

The test system of assay [2] is AGS cells. Kind of assay: Morphological changes by light microscopy. Particulars: 10 μM, within 24 h, FIG. 5. From the text:
FIG. 5 provides light microscopic images showing the morphological changes of AGS cells, including the induction of apoptotic bodies from AGS cells, induced by NAB and ANAB.
Physiological cell death is characterized by apoptotic morphology, including chromatin condensation, membrane blebbing, internucleosome degradation of DNA, and apoptotic body formation. Nucleosomal DNA ladders visible on agarose gel after staining with ethidium bromide are typical of apoptotic cell samples. To investigate whether the cytotoxic effects of NAB and ANAB observed in AGS cells were due to the presence of apoptotic cell death, cells were treated with […] (0-25 μM) for 24 h and DNA fragmentation analyses were performed. […] FIG. 5.

As to `C=C1C(=O)O[C@H]2/C=C(\C)CC/C=C(\C)C[C@H](OC(C)=O)[C@@H]12` [Compound 4, acetyl neobritannilactone B], the apoptotic ratio in the assay with HL-60 cells (HL-60, 5 μM) is 22.93 ± 1.34%; with HL-60 cells (HL-60, 10 μM), 39.71 ± 2.85%; in the assay on HL-60 cells (HL-60, 25 μM), 95.17 ± 1.61%; in the assay with HL-60 cells (HL-60, 25 μM, listed as ANAB) it was 95.17%; in the assay on HL-60 cells (HL-60, 50 μM), 97.74 ± 0.44%; in the assay with HL-60 cells (HL-60, 100 μM), 98.05 ± .30%. In addition, the apoptotic ratio in the assay on HT-29 cells (HT-29, 5 μM) is on record as 20.38 ± .17%; with HT-29 cells (HT-29, 10 μM), 47.56 ± 0.00%; in the assay on HT-29 cells (HT-29, 25 μM), 69.70 ± .22%; in the assay on HT-29 cells (HT-29, 25 μM, listed as ANAB), 69.70%; in the assay on HT-29 cells (HT-29, 50 μM), 81.43 ± 1.46%; in the assay on HT-29 cells (HT-29, 100 μM), 82.47 ± 2.06%. For the same compound, the “percentage of apoptotic AGS cells” value in the assay on AGS cells [1] (5 μM) was found to be 24%; with AGS cells [1] (10 μM) it was 64%; in the assay on AGS cells [1] (15 μM) it was 81%; with AGS cells [1] (25 μM), 92%. Moreover, the “Bcl-XL expression over time” value with Bcl-XL in AGS cells (at 12 h, 15 μM, FIG. 7B) is “marked and significant change in the expression of Bcl-XL”. In the assay on Bcl-XL in AGS cells, the Bcl-XL expression entry was “dose-dependent decrease of Bcl-XL”. In addition, in the assay with AGS cells [2], the morphological changes result was “significant morphological changes and chromosomal condensation”.

Take `C=C1C(=O)OC2C=C(C)CCC=C(C)CC(O)C12` (stereo not drawn) [Compound 3, 4-hydroxy-3α,4,5,8,9,11α-hexahydro-6,10-dimethyl-3-methylene-cyclodeca[b]furan-2(3H)-one]: the apoptotic ratio in the assay on HL-60 cells (HL-60, 5 μM) is recorded as 9.82 ± 1.90%; with HL-60 cells (HL-60, 10 μM) it was 21.93 ± 2.81%; with HL-60 cells (HL-60, 25 μM), 77.57 ± 7.06%; with HL-60 cells (HL-60, 25 μM, listed as NAB), 77.54%; in the assay on HL-60 cells (HL-60, 50 μM) it was 96.94 ± 0.57%; in the assay on HL-60 cells (HL-60, 100 μM), 98.29 ± 0.15%. For the same compound, the apoptotic ratio in the assay with HT-29 cells (HT-29, 5 μM) is on record as 13.58 ± 0.87%; with HT-29 cells (HT-29, 10 μM) it was 24.46 ± .88%; with HT-29 cells (HT-29, 25 μM) it was 66.54 ± 1.58%; with HT-29 cells (HT-29, 25 μM, listed as NAB), 66.54%; with HT-29 cells (HT-29, 50 μM), 82.27 ± 1.68%; in the assay with HT-29 cells (HT-29, 100 μM) it was 87.02 ± 0.30%. Besides, the “percentage of apoptotic AGS cells” value with AGS cells [1] (5 μM) is 14%; with AGS cells [1] (10 μM) it was 27%; with AGS cells [1] (15 μM) it was 63%; with AGS cells [1] (25 μM), 86%. Besides, in the assay with Bcl-XL in AGS cells, the Bcl-XL expression entry is recorded as “dose-dependent decrease of Bcl-XL”.
